Laboratory results taken from US10058579B2, “Dietary supplements containing extracts of cinnamon and methods of using same to promote enhanced sirtuin, cell and telomere integrity” (IN Ingredients, Inc., priority 2010, dated 2018).

System: SIRT family mRNA expression
Assay: sirtuin (SIRT family) mRNA expression in rat primary enterocytes, quantitative PCR
Format: cell-based
Conditions: 2 μg/ml; enterocytes of chow-fed rats; FIG. 2
Description: The baseline value for the effects of a high fructose diet on SIRT family mRNA expression is established. The experimental protocols parallel those of Firestein, R., et al., PLoS ONE, 2008; 3(4): e2020. doi:10.1371/journal.pone.0002020 except using Wistar rats. The animals fed ad libitum with water and either a standard chow diet or a high fructose diet. Primary enterocytes are obtained from animals (6 months of age) following sacrifice and rapid harvest of the intestine. The isolated intestine is thoroughly flushed with ice cold PBS.
Total RNA is isolated from primary enterocyte tissue obtained as above, adipose tissue (obtained by biopsy), or liver (obtained by biopsy) using TR1 reagent (Applied Biosystems, Austin, Tex.), according to the manufacturer's guidelines. The resulting total RNA is subjected to DNase treatment using RNase-free DNase (Ambion). The purity of isolated RNA is measured by a NanoDrop spectrophotometer. A set concentration of RNA is reverse transcribed into cDNA using SuperScript II RT, and quantitative PCR is performed on ABI Prism 7500 Sequence Detection System (Applied Biosystems, Carlsbad, Calif.) using SYBR Green PCR Master Mix (Applied Biosystems, Carlsbad, Calif.).
The level of sirtuin mRNA expression is assayed following exposure of rat primary enterocytes to the anthocyanin delphinidin. […]

With `Oc1cc(O)c2cc(O)c(-c3cc(O)c(O)c(O)c3)[o+]c2c1` [delphinidin] the “increase of sirtuin gene expression as measured by mRNA levels over control” value was 2-3 fold.
